In ChEMBL document CHEMBL3507680, “University of Dundee, Gates Library screen for HepG2 cell viability”:

Assay: Human HepG2 cell viability assay in 384 well format
Assay type: toxicity, cell-based
Set-up: dose 125 nL, time 70.5 hour; concentration not given beside the values
Settings: HepG2 cells, read-out: Inhibition

Structure (SMILES)	cytotoxicity at 70.5 h
CCCc1ccc2oc(C(=O)N3CCN(CCC(N)=O)CC3)c(C)c2c1	19.5%
CN(Cc1cccc(C(F)(F)F)c1)Cc1nc(-c2cnccn2)no1	-8.53%
Cc1nc[nH]c1CN1CCC(CNC(=O)c2cccc3cnccc23)C1 (configuration not stated)	-7.78%
Cc1ncc2c(c1CNC(=O)C1(C)CC1)CCNC2	-7.68%
Nc1nc2c(c(NCc3ccc(C(=O)N4CCCC4)cc3)n1)CCCC2	2.85%
NC(=O)CCNC(=O)C1(N2CCCCC2)Cc2ccccc2C1	9.16%
Cc1ccc(-c2ccnc(NC(C)c3c(C)n[nH]c3C)n2)c(C)n1 (configuration not stated)	-8.64%
CCOCC(=O)NC(C)c1cc(C)ccc1C (configuration not stated)	12.7%
O=C(C1CCOCC1)N1C[C@H]2CC[C@@H]1CN(C1Cc3ccccc3C1)C2	-5.9%
COc1cccc2c(=O)n(Cc3ccnc(C)c3)cnc12	-26.7%
Cc1nccn1CCCN1CCCC(c2nccn2CC2CCC2)C1 (configuration not stated)	-12.7%
Cc1ccc(-n2cccn2)cc1S(=O)(=O)N1C[C@@H]2CC[C@H](C1)N(C)C2	-1.91%
CCn1nc(CC(C)C)cc1C(=O)N1CCOCC(O)C1 (configuration not stated)	-2.68%
CC(C)(C)c1oc(C(N)=O)cc1CN1CCOC(C(F)(F)F)C1 (configuration not stated)	1.68%
CC(O)Cc1cn(CC2CCN(C3CCSCC3)CC2)nn1 (configuration not stated)	-4.31%
COc1cccc(Cn2ncnc2CCC(C)N2CCN(C)CC2)c1 (configuration not stated)	-4.48%
COCc1nc(CNc2cc(C)nc(-c3ccccc3)n2)no1	-8.75%
CSc1ccc(-c2nc(CN3C[C@@H](C)NC[C@@H]3C)c(C)o2)cc1	-4.1%
c1ccc(-c2cc(CN3C[C@@H]4CC[C@H](C3)N(CC3CCC3)C4)on2)cc1	-11.6%
CC(c1nccs1)N(C)C(=O)c1cc(CN(C)Cc2ccccc2)on1 (configuration not stated)	0.573%
Cc1ccccc1OC(C(=O)N1CCC2(CC1)CN(C)C(=O)O2)C(C)C (configuration not stated)	-4.56%
Cc1ccnc(CC(C)N(C)c2cc(CN)nc(C)n2)c1 (configuration not stated)	-5.59%
CCOc1ccc(C(C)Nc2ncnc3c2CCNC3)cc1OCC (configuration not stated)	-12%

Structure (SMILES)	cytotoxicity at 70.5 h
Cn1cc(-c2ccnc(NCC3CCCCO3)n2)cn1 (configuration not stated)	9.61%
COc1ccc(-c2noc(C3CC(C(C)C)=NO3)n2)cc1 (configuration not stated)	1.77%
C=C(C)COc1ccccc1CNC(CC)c1ccnn1C (configuration not stated)	-5.65%
Cc1occc1C(=O)N1CCC2(CCCN(CC3CC3)C2=O)C1 (configuration not stated)	-15%
Cc1cc(N2CCC(NC(C)Cc3ccsc3)CC2)nc(N)n1 (configuration not stated)	32.9%
O=C(NCCC1CCCCO1)c1cc(COc2cncc(Cl)c2)on1 (configuration not stated)	14.4%
CC(=O)NC(C(=O)N1CCn2cncc2C1)C(C)C (configuration not stated)	-2.16%
Cc1nonc1CN(C)Cc1nc(-c2cccc(F)c2F)oc1C	-7.8%
O=C(O)c1ccnc(-c2ccnc(COc3ccccc3Cl)n2)c1	-7.03%
COc1ccc(OC)c(-n2cnnc2CN)c1	-2.21%
CCn1nccc1S(=O)(=O)N1CCC2(CCCN(C(C)C)C2=O)C1 (configuration not stated)	-14.6%
COc1ccc(CNC(=O)N2CCN(C)[C@@H]3CS(=O)(=O)C[C@@H]32)cc1	-1.34%
CCO[C@H]1COC[C@@H]1NC(=O)c1c[nH]nc1C1CCCCC1	19.5%
N#Cc1cccc(NC2CC(=O)N(Cc3cccc(F)c3)C2)n1 (configuration not stated)	-8.43%
Cc1cccc(-c2nccn2-c2cccc(CC(=O)O)c2)n1	-9.85%
CNc1nc2c(c(C(=O)N3CCCC3)n1)CN(Cc1cc(C)no1)CC2	10.8%
CCC(C(=O)NC1CCCC1)n1ccc2ncccc2c1=O (configuration not stated)	-16.4%
Cc1nc(N2CCN3CCCCC3C2)nc2cc(S(C)(=O)=O)ccc12 (configuration not stated)	0.525%
NC(=O)CN1CCC(C(=O)NCCn2cc(Cl)cn2)CC1	3.62%
COCCNC(=O)c1cc(COc2cncc(Cl)c2)on1	-3.27%
Cc1cc(C(=O)N2CCCC3(CNC(=O)O3)C2)c2c(C)nn(C)c2n1 (configuration not stated)	-5.33%
COc1nccnc1-c1cccc(-c2ccn(CC3COCCO3)n2)c1 (configuration not stated)	-6.47%
CCn1c(N)nc2cc(C(=O)N3CCN(c4ccncc4)CC3)cnc21	-2.2%

Structure (SMILES)	cytotoxicity at 70.5 h
O=C1N(CCO)CCCC12CCN(Cc1noc(C3CCCC3)n1)C2 (configuration not stated)	5.43%
O=C(Nc1ccccc1OCc1ccccn1)NC1CCOCC1	-8.37%
CN(Cc1noc2c1CCCC2)C(=O)CN1C(=O)CSc2ccccc21	3.41%
COc1cccc(-c2ncc(CN3C[C@@H]4CC[C@H](C3)N(C)C4=O)s2)c1	-0.692%
Cc1nccn1CCC1CCN(C(=O)C2CC3(CCNCC3)CN2)CC1 (configuration not stated)	-8.48%
CCC(=O)N1CCCC(C(=O)N2CCN(c3cnn(C)c(=O)c3)CC2)C1 (configuration not stated)	-12.7%
Cc1ncnc(NCCCN2CCCCC2CO)c1C (configuration not stated)	-1.1%
O=C(O)COc1ccc(CN2CCCC(CCc3ccccc3)C2)cc1 (configuration not stated)	20.1%
Cn1ncnc1-c1ccnc(NCCCc2ccncc2)n1	-17.5%
Cc1nc(O)cc(CN2CC=C(c3cnn(-c4ccccc4)c3)CC2)n1	14.1%
CC(C)OC(=O)N1C[C@H]2CC[C@@H]1CN(C(=O)c1ccccn1)C2	10.5%
COc1cc(Oc2ncccc2C(F)(F)F)ccc1CN1CCCC1	4.5%
CCc1cnc(N)nc1NCc1ccc(OC)cc1OC	-0.135%
CC(C)SCC(=O)N1Cc2cnc(-c3ccccc3)nc2C1	-7.54%
COc1cccc(C2CCCN2C(=O)CC2=CSC3=NCCCN23)c1 (configuration not stated)	-12%
CCC(C)N(Cc1cccnc1)C(=O)c1ncccc1O (configuration not stated)	-8.41%
CCCn1ncnc1C(C)NC(=O)C1CCN(C(C)C)CC1 (configuration not stated)	-4.07%
COCc1nc(N2CC[C@H](N(C)C)C2)c2cnn(C)c2n1	-10%
Cc1nc(C(C)C)sc1C(=O)N1CCN(C2CCSCC2)CC1	9.03%
Cc1ccc(-c2ccnc(NC(C)c3ncc[nH]3)n2)c(C)n1 (configuration not stated)	-10.5%
COc1cccc([C@H]2CN(CCCS(=O)(=O)N(C)C)C[C@@H]2N)c1	-3.42%
CCN1CCC(CC(=O)NCc2nc(C)cc(C)n2)CC1	-3.98%
O=C(COCC(F)(F)C(F)F)N1CCC2(CCCN(CCO)C2=O)C1 (configuration not stated)	-2.98%

Structure (SMILES)	cytotoxicity at 70.5 h
Cc1ccc(O)c(-c2cc(NCCO)nc3[nH]ccc23)c1	-4.62%
O=C(O)c1ccnc(-c2ccnc(COc3cccc(F)c3)n2)c1	16.7%
Cc1nn(C)c2ncnc(N(C)CC3CCN(CC(C)C)C3)c12 (configuration not stated)	-2.77%
CC(=O)N1CCN(Cc2c(C)sc3ccccc23)CC(O)C1 (configuration not stated)	-3.67%
COc1cccc(CC(=O)N2CCC3(CC2)OCCCC3O)c1OC (configuration not stated)	-7.1%
Cc1cc(=O)n(CC(=O)Nc2cccc(Cl)c2)nc1C	21.6%
CCN(CCO)C(=O)C1CCC(=O)N(CCc2cccc(F)c2)C1 (configuration not stated)	-1.58%
CCCS(=O)(=O)N1CCN(c2cc(-n3cnc(C)c3C)ncn2)CC1	2.79%
CC(COc1ccccc1)NS(C)(=O)=O (configuration not stated)	-1.8%
CCC(NC1CCCC1)c1ccc(S(C)(=O)=O)cc1 (configuration not stated)	-12.8%
O=C(COCC1CCCO1)N1CCCN(Cc2ccccc2F)CC1 (configuration not stated)	-5.89%
COc1ccc2c(C(=O)N(C)C)cc(-c3cnc(N)nc3)nc2c1	-3.44%
Cc1nnc(CCNC(=O)c2coc(CN3CCOCC3)c2)s1	1.37%
CCC(NS(C)(=O)=O)c1ccccc1C (configuration not stated)	10.1%
CN(CC1Cc2ccccc2CN1C)c1nc(N)nc2c1CCNCC2 (configuration not stated)	-9.32%
CN1CC2(CCCN(Cc3cccc(Oc4ccccc4)c3)C2)OC1=O (configuration not stated)	24.6%
O=S1(=O)CCC(n2cc(C3=CCN(CCc4ccccc4)CC3)cn2)C1 (configuration not stated)	-2.15%
CCCC(=O)N1CCN(c2cc(-n3cnc(C)c3C)nc(C)n2)CC1	-2.01%
O=C1CC(c2ccc(F)cc2)c2cnn(C3CCCC3)c2N1 (configuration not stated)	-7.98%
CCOc1cccc(C2CC(=O)NCc3nc(N(C)C)sc32)c1 (configuration not stated)	-5.3%
COCC(=O)N1CCC(C(=O)Nc2ccc(C(C)=O)cc2)CC1	-7.91%
COCCN1CC2(CCCN(c3ncnc4[nH]cnc34)C2)CCC1=O (configuration not stated)	-1.89%
CCC1CCCCN1S(=O)(=O)c1c(N)noc1C (configuration not stated)	-2.36%

Structure (SMILES)	cytotoxicity at 70.5 h
Cc1ccc(OCC(C)NS(C)(=O)=O)cc1 (configuration not stated)	-4.31%
Cc1nc(N2CCN(S(C)(=O)=O)CC2)cc(-n2cnc(C)c2C)n1	-3.21%
CN(Cc1ccc(-n2cncn2)cc1)Cc1ncc[nH]1	-0.834%
CCn1c(CN(C)C)nnc1C1CCN(Cc2cccc(C#N)c2)CC1	-5.02%
CCC(C(=O)NCc1cc(N2CCOCC2)ncn1)n1cccn1 (configuration not stated)	-1.38%
Cn1cc(CN(Cc2cccc(-n3cccn3)c2)C2CC2)cn1	43.4%
Cc1cc(C)nc(N2CCC(NCCSc3nnnn3C)CC2)n1	11.2%
Cc1ccc(C(C(=O)NCc2cc(C)[nH]n2)N(C)C)cc1 (configuration not stated)	-8.58%
CCc1ncc(C(=O)N2CCN(c3cnn(C)c(=O)c3)CC2)cn1	-5.02%
Cc1cnc(C)c(N2CCN(Cc3ccc(C)c(C)c3)CC2)n1	3.81%
CCN(CC)C(=O)[C@@H]1C[C@@H](n2cc(-c3cccc(OC)c3)nn2)CN1	-15.1%
Cc1ccc(-c2ncc(C(=O)N3CCCC(CCN)C3)c(O)n2)cc1 (configuration not stated)	-7.81%
CC(=O)N1C[C@@H]2CC[C@H](C1)N(S(=O)(=O)c1ccc(F)cc1Cl)C2	-6.08%
CCCNS(=O)(=O)c1ccc(C(=O)NC(CC)c2cnn(C)c2)cc1 (configuration not stated)	-4.79%
CCc1nn(C)c(Cl)c1CN1CCN(c2nc(C(N)=O)cs2)CC1	-3.53%
CN1CCCNC(=O)C12CCN(C(=O)c1ccc3[nH]cnc3c1)CC2	-3.14%
Cc1cc(C)n(CC(=O)N2Cc3cnc(C(C)(C)C)nc3C2)n1	-4.01%
CN(C)C[C@@H]1CN(C(=O)Cc2cccc(O)c2)C[C@@H]1CO	-7.03%
Cc1ccsc1-c1nc(CN(C)Cc2noc(C(C)C)n2)c(C)o1	-10.3%
CN1CC2(CCC1=O)CCN(CC[C@@H](O)c1ccccc1)CC2	19.6%
